How the values were obtained:
[1] = test system: marrow cells (mononuclear cell fraction); assay: Proliferation-stimulating effect on marrow cell of mouse (3H-TdR uptake); type: cell-based, mouse (BALB/c); details: percentage of control, 72 h; for activity at 0.1 µg/mL: 10^-1 μg/ml; for activity at 0.01 µg/mL: 10^-2 μg/ml; for activity at 0.001 µg/mL: 10^-3 μg/ml; for activity at 1 µg/mL: 10^0 μg/ml
Protocol: Pharmacological Test 1: Proliferation-Stimulating Effect on Marrow Cell of Mouse
Marrow cells were prepared from the thigh bone of a 7 week old female BALB/c mouse purchased from Japan SLC Co., Ltd., and a mononuclear cell fraction (MNF) obtained by fractionation using a lympholyte-M (Cedar Lane, Ontario, Canada) was used in the following experiment.
The concentration of the MNF was adjusted to 1.5×10^6 cells/ml by using 10% FCS RPMI 1640 (Nissui Pharmaceutical Co., Ltd., Tokyo, Japan) as a culture medium. 10 μl/well of a sample with a predetermined concentration and 100 μl/well of the above-prepared MNF were placed on a round-bottomed 96 well plate, and incubated under the conditions of 37° C. and 5% CO2 for 72 hours. Thereafter, 0.5 μCi/well of ^3 H-thymidine (^3 H-TDR) was added. After 8 hour incubation, the cells were harvested, and the amount of the 3H-TdR taken in the nuclei was measured by a liquid scintillation counter.

blood platelets [2] = assay: Thrombocytopenia-inhibiting effect in X-ray-irradiated mice; type: in vivo, mouse (BDF1); details: 10 days after 5 Gy X-ray; 0.1 mg/kg i.v. within 2 h; mean ± SD; vehicle per series 10.3, 6.8, 6.7; non-treatment 68.2, 96.9, 73.0
Protocol: Pharmacological Test 5: Thromboclytopenia-Inhibiting Effect
The thrombocytopenia-inhibiting effect of each sample upon an X-ray-irradiated mouser which is one of models with a decreased number of blood platelets was examined.
An experiment was carried out by using 6 week old female BDF1 mice purchased from Japan SLC Co., Ltd., with 6 mice made one group.
5 Gy of X ray was irradiated to the entire body of the mice by a Hitachi X-ray irradiator CMBR-1520R). Within 2 hours after the irradiation, each sample was administered to the caudal vein of the mice at an amount of 0.1 mg/kg.
(§1) After 10 days, blood was collected from the fundus vein of the mice, and the number of blood platelets was measured by a sequential multi-channel hemocytometer E-2500/cs (Toa Iyo Denshi Kabushiki Kaisha). The number of blood platelets of the non-treated group, that of the medium-administered group, and that of the sample-administered group are shown in Table 5.

blood platelets [3] = assay: Blood-platelet-increasing effect upon normal mouse; type: in vivo, mouse (BDF1); details: normal mice; 6 days after 0.1 mg/kg i.v.; mean ± SD; vehicle per series 58.2, 63.0, 71.1
Protocol: Pharmacological Test 6: Blood-Platelet-Increasing Effect upon Mouse
An experiment was carried out by using 6 week old female BDF1 mice purchased from Japan SLC Co., Ltd., with 5 mice made one group.
as §1, with “Each sample was administered to the caudal vein of the mice at a dose of 0.1 mg/kg. After” for “After”, “6” for “10”, “vehicle-administered” for “non-treated group, that of the medium-administered”, “6.” for “5.”

[4] = Life-span-increasing effect on irradiation of a lethal dose of radiation; type: in vivo, mouse (BDF1); details: 10 mice/group, 9 Gy X-ray, 0.1 mg/kg i.v. days 0, 4, 8
Protocol: Pharmacological Test 4: Life-Span-Increasing Effect on Irradiation of a Lethal Dose of Radiation
An experiment was carried out by using 6 week old female BDF1 mice purchased from Japan SLC Co., Ltd., with 10 mice made one group.
The entire bodies of the entire body of the mice were irradiated with 9 Gy of X-rays by using a Hitachi X-ray irradiator (MBR-1520R), and the day on which the X-ray was irradiated was referred to as "day 0".

[5] = day 10, controls per series 10, 10, 10, 10, 10, 8
[6] = day 15, controls per series 8, 9, 5, 5, 7, 1
[7] = day 20, controls per series 4, 5, 1, 2, 3, 0
[8] = day 25, controls per series 3, 3, 0, 0, 2, 0
[9] = day 30, controls per series 1, 1, 0, 0, 0, 0

Row | Structure (SMILES) | activity at 0.1 µg/mL [1] | activity at 0.01 µg/mL [1] | activity at 0.001 µg/mL [1] | Number of Blood Platelets (blood platelets [2]) | Number of Blood Platelets (blood platelets [3]) | Number of Surviving Mice [4, 5] | Number of Surviving Mice [4, 6] | Number of Surviving Mice [4, 7] | Number of Surviving Mice [4, 8] | Number of Surviving Mice [4, 9] | Number of Surviving Mice ([4]; day 35, all controls 0) | Number of Surviving Mice ([4]; day 40, all controls 0) | activity at 1 µg/mL [1]
1 | CCCCCCCCCCCCCC(=O)N[C@@H](CO[C@H]1O[C@H](CO)[C@H](O)[C@H](O)[C@H]1O)[C@H](O)CCCCCCCCCCCCC [Compound 10, (2S,3R)-1-(α-D-galactopyranosyloxy)-2-tetradecanoylamino-3-hexadecanol] | 356% | 90% | 77% | 19.6 ± 4.0 × 10^4 /μl | 87.2 ± 4.0 × 10^4 /μl | 10 mice | 8 mice | 7 mice | 7 mice | 7 mice | 7 mice | 7 mice | 
2 | CCCCCCCCCCCCCCCCCCCCCCCC(=O)N[C@@H](CO[C@H]1O[C@H](CO)[C@H](O)[C@H](O)[C@H]1O)[C@H](O)[C@H](O)CCCCCCCCCCCC(C)C [Compound 31, (2S,3S,4R)-1-(α-D-galactopyranosyloxy)-16-methyl-2-tetracosanoylamino-3,4-heptadecanediol] | 326% | 104% | 101% | 27.7 ± 5.4 × 10^4 /μl | 108.0 ± 7.0 × 10^4 /μl | 10 mice | 10 mice | 9 mice | 9 mice | 9 mice | 9 mice | 9 mice | 624%
3 | CCCCCCCCCCCCC/C=C/[C@@H](O)[C@H](CO[C@H]1O[C@H](CO)[C@H](O)[C@H](O)[C@H]1O)NC(=O)CCCCCCCCCCCCCCCCC [Compound 15, (2S,3R,4E)-1-(α-D-galactopyranosyloxy)-2-octadecanoylamino-4-octadecen-3-ol] | 292% | 101% | 69% | 17.8 ± 2.4 × 10^4 /μl | 84.7 ± 6.0 × 10^4 /μl | 10 mice | 9 mice | 6 mice | 6 mice | 6 mice | 6 mice | 6 mice | 979%
4 | CCCCCCCCCCCCC/C=C/[C@@H](O)[C@H](CO[C@H]1O[C@H](CO)[C@H](O)[C@H](O)[C@H]1O)NC(=O)CCCCCCCCCCCCC [Compound 32, (2S,3R,4E)-1-(α-D-galactopyranosyloxy)-2-tetradecanoylamino-4-octadecen-3-ol] | 405% | 151% | 115% | 16.4 ± 3.2 × 10^4 /μl | 88.3 ± 4.2 × 10^4 /μl | 10 mice | 9 mice | 4 mice | 3 mice | 3 mice | 3 mice | 3 mice | 871%
5 | CCCCCCCCCCCCCCC[C@@H](O)[C@H](CO[C@H]1O[C@H](CO)[C@H](O)[C@H](O)[C@H]1O)NC(=O)CCCCCCCCC [Compound 6, (2S,3R)-2-decanoylamino-1-(α-D-galactopyranosyloxy)-3-octadecanol] | 391% | 196% | 71% | 15.4 ± 3.2 × 10^4 /μl | 93.0 ± 12.1 × 10^4 /μl | 9 mice | 6 mice | 2 mice | 2 mice | 2 mice | 2 mice | 2 mice | 
6 | CCCCCCCCCCCCCCCCCCCCCCCC(=O)N[C@@H](CO[C@H]1O[C@H](CO)[C@H](O)[C@H](O)[C@H]1O)[C@H](O)[C@H](O)CCCCCCC [Compound 19, (2S,3S,4R)-1-(α-D-galactopyranosyloxy)-2-tetracosanoylamino-3,4-undecanediol] | 499% | 207% | 173% | 23.4 ± 4.2 × 10^4 /μl | 106.4 ± 12.7 × 10^4 /μl | 10 mice | 10 mice | 10 mice | 10 mice | 10 mice | 10 mice | 10 mice | 
7 | CCCCCCCCCCCCCCCCCCCC(=O)N[C@@H](CO[C@H]1O[C@H](CO)[C@H](O)[C@H](O)[C@H]1O)[C@H](O)CCCCCCCCCCCCCCC [Compound 3, (2S,3R)-1-(α-D-galactopyranosyloxy)-2-icosanoylamino-3-octadecanol] | 234% | 87% | 84% | 20.6 ± 4.5 × 10^4 /μl | 102.0 ± 10.8 × 10^4 /μl | 10 mice | 9 mice | 8 mice | 8 mice | 8 mice | 8 mice | 8 mice | 
8 | CCCCCCCCCCCCCCC[C@@H](O)[C@H](CO[C@H]1O[C@H](CO)[C@H](O)[C@H](O)[C@H]1O)NC(C)=O [Compound 8, (2S,3R)-2-acetamino-1-(α-D-galactopyranosyloxy)-3-octadecanol] | 232% | 81% | 129% | 8.1 ± 2.6 × 10^4 /μl | 96.6 ± 3.2 × 10^4 /μl | 10 mice | 5 mice | 1 mice | 1 mice | 1 mice | 1 mice | 1 mice | 
9 | CCCCCCCCCCCCCCCCCCCCCC[C@@H](O)C(=O)N[C@@H](CO[C@H]1O[C@H](CO)[C@H](O)[C@H](O)[C@H]1O)[C@H](O)[C@H](O)CCCCCCC [Compound 24, (2S,3S,4R)-1-(α-D-galactopyranosyloxy)-2-[(R)-2-hydroxytetracosanoylamino]-3,4-undecanediol] | 197% | 79% | 77% | 21.6 ± 7.2 × 10^4 /μl | 102.6 ± 9.9 × 10^4 /μl | 10 mice | 9 mice | 9 mice | 9 mice | 9 mice | 9 mice | 9 mice | 576%

— US6071884A, “Pharmaceutical compositions and therapeutic methods” (Kirin Beer Kabushiki Kaisha, priority 1992, dated 2000)
